Measured values reported in BindingDB's records for patent US20240308985 (Psy Therapeutics, 2024).
pIC50: −log10 of the molar value.

Target: T1, Fatty-acid amide hydrolase 1 (Homo sapiens, UniProt O00519)
T1 sequence (O00519 whole entry): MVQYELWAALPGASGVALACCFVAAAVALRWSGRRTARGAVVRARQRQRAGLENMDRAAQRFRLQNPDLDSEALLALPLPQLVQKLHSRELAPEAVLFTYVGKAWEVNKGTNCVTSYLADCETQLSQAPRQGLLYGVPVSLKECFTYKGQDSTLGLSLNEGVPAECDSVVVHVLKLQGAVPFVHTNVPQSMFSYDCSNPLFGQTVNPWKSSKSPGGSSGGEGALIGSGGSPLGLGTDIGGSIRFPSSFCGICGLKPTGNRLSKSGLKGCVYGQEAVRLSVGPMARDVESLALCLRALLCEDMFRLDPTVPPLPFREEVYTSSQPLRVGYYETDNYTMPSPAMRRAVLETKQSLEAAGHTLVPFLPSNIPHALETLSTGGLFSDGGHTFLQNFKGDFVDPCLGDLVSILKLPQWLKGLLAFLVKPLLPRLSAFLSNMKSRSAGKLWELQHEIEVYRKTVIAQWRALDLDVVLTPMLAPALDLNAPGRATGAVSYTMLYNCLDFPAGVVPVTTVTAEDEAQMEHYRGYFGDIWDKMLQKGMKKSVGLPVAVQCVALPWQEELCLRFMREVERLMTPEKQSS
Assay: Measuring FAAH Inhibition Potency
Description: MAGL inhibitor compounds were also counter-screened for FAAH inhibition potency using the following assay. Assessment of FAAH inhibition was performed using Fatty Acid Amide Hydrolase Inhibitor Screening Assay Kit (Cayman Item No. 10005196) following manufacture's instruction with some modifications. The kit utilizes human recombinant FAAH and the fluorescent substrate, AMC Arachidonoyl amide (AAMCA). 5 μL of assay buffer (125 mM Tris, pH 9.0, 1 mM EDTA, i.e. ethylenediaminetetraacetic acid) was added to a 384-well black plate (Corning, 3573). Test compounds and control inhibitor JZL-195 (Cayman Chemical, 13668) were tested in 10-concentration IC50 mode with 3-fold serial dilution at a starting concentration of 100 μM and 10 μM, respectively. 300 nL or 30 nL of test compounds were delivered into a 384-well black plate (Corning, 3573) using a Labcyte Echo, followed by addition of 15 μL of FAAH enzyme (Cayman, 700302) in assay buffer. After a 5-minute pre-incubation at room temperature, 10 μL of AAMCA was added in assay buffer to start the reaction. Final concentration of FAAH enzyme is not specified and AAMCA substrate was used at the 20 uM. […] The reaction was allowed to progress for 60 minutes, while the plate was read on an Envision plate reader at an Ex/Em of 350/460 nm with readings every minute. The data was analyzed in Microsoft Excel, using the slope between 30 and 59 minutes. […]

pIC50: < 5.00
Compound: Cc1cc(C2=CC3(C2)CN(C(=O)c2cc(O)ccc2F)C3)n(-c2ccccc2C)n1 [US20240308985, Compound 120]
